# Laboratory results reported in ChEMBL document CHEMBL2074034, “Characterization of cloned mouse Na+/taurocholate cotransporting polypeptide by transient expression in COS-7 cells” (Biosci Biotechnol Biochem, 2002).
# How the values were obtained:
# Assay type in all cases: functional, cell-based
# Details in all cases: monkey, cos-7, 72 µM
# [1] = biological target: T1, Hepatic sodium/bile acid cotransporter (Mus musculus, UniProt O08705); assay: TP_TRANSPORTER: inhibition of Taurocholate uptake (Taurocholate: 0.72 uM, Lithocholate: 72 uM) in Ntcp-expressing COS-7 cells
# T1 sequence (O08705 whole entry): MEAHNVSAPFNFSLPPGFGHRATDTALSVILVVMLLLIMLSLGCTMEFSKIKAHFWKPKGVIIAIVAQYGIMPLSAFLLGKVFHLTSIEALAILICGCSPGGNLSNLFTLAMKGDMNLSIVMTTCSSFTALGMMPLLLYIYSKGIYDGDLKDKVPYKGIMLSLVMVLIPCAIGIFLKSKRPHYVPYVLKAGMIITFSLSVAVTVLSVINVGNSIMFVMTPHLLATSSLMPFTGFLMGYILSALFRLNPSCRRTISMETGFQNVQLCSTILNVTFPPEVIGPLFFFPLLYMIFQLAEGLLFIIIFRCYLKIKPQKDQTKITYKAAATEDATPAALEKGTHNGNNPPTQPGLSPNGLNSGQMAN
# [2] = biological target: T1, Hepatic sodium/bile acid cotransporter; assay: TP_TRANSPORTER: inhibition of Taurocholate uptake (Taurocholate: 0.72 uM, GC: 72 uM) in Ntcp-expressing COS-7 cells
# [3] = biological target: T1, Hepatic sodium/bile acid cotransporter; assay: TP_TRANSPORTER: inhibition of Taurocholate uptake (Taurocholate: 0.72 uM, Deoxycholate: 72 uM) in Ntcp-expressing COS-7 cells
# [4] = biological target: T1, Hepatic sodium/bile acid cotransporter; assay: TP_TRANSPORTER: inhibition of Taurocholate uptake (Taurocholate: 0.72 uM, CDCA: 72 uM) in Ntcp-expressing COS-7 cells
smiles,measurement,setting,value
C[C@H](CCC(=O)O)[C@H]1CC[C@H]2[C@@H]3CC[C@@H]4C[C@H](O)CC[C@]4(C)[C@H]3CC[C@]12C [LITHOCHOLIC ACID],Activity,[1],inhibitor [(at a rough estimate) 5 % of control]
C[C@H](CCC(=O)NCC(=O)O)[C@H]1CC[C@H]2[C@@H]3[C@H](O)C[C@@H]4C[C@H](O)CC[C@]4(C)[C@H]3C[C@H](O)[C@]12C [GLYCOCHOLIC ACID],Activity,[2],inhibitor [(at a rough estimate) 40 % of control]
C[C@H](CCC(=O)O)[C@H]1CC[C@H]2[C@@H]3CC[C@@H]4C[C@H](O)CC[C@]4(C)[C@H]3C[C@H](O)[C@]12C [DEOXYCHOLIC ACID],Activity,[3],inhibitor [(at a rough estimate) 20 % of control]
C[C@H](CCC(=O)O)[C@H]1CC[C@H]2[C@@H]3[C@H](O)C[C@@H]4C[C@H](O)CC[C@]4(C)[C@H]3CC[C@]12C [CHENODIOL],Activity,[4],inhibitor [(at a rough estimate) 20 % of control]
